Columns and labels:
human H1 receptor = molecular target: T1, human H1 receptor (Homo sapiens, UniProt P35367); experiment: standard H1 binding assay ([3H]-pyrilamine displacement, scintillation counting); settings: recombinant HEK-293 derived membranes, [3H]-pyrilamine 1 nM, 22°C, 60 minutes
T1 construct: expressed in transfected cells; host or cells: HEK-293 (membranes)
Method: The antiH1 activity of Compound II was assayed using a standard H1 binding assay. The test was performed following a protocol based on Smit et al. (Brit. J. Pharmacol. 1996 117(6), 1071-1080): the binding was performed on recombinant HEK-293 cells expressing the human H1 receptor. The reference compound was [^3H]-pyrilamine at 1 nM. Recombinant HEK-293 derived membranes were incubated at 22°C for 60 minutes with [^3H]-pyrilamine in the presence of different concentrations of compound II. Measurements were carried out using scintillation counting.

solubility in water = assay type: physicochemical
[1] = stated in background; cited from earlier work

T1 sequence (P35367 whole entry): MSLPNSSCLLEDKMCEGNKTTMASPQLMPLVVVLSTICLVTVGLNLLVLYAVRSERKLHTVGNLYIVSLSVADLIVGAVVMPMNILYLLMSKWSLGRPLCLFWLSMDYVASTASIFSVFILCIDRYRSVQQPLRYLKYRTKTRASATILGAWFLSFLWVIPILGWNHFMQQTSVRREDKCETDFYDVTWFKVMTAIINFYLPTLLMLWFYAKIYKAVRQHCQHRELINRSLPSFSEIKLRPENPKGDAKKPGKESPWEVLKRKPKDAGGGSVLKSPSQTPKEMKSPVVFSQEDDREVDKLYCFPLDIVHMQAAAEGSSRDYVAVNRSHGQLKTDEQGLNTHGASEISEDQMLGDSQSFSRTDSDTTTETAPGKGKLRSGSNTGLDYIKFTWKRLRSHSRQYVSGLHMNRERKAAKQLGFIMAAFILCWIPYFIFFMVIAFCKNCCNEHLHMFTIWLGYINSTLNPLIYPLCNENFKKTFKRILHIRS

Row | IC50 (human H1 receptor) [nM] | solubility (solubility in water) [mg/mL] | Compound | solubility in water [1] [mg/mL]
1 | 370 | > 50 | Cc1cc(CN2CCC(=C3c4ccc(Cl)cc4CCc4cccnc43)CC2)c[n+](C(CC(=O)O)C(=O)[O-])c1 (stereo not drawn) [Compound II] | 
2 |  |  | Rupatadine fumarate | 2.9
